The values that follow come from ChEMBL document CHEMBL4665691, “Callicarpins, Two Classes of Rearranged ent-Clerodane Diterpenoids from Callicarpa Plants Blocking NLRP3 Inflammasome-Induced Pyroptosis” (J Nat Prod, 2020).

The structures appear in SMILES notation. pIC50: −log10 of the molar value.

This experiment has as its system J774.A1. Briefly: Cytotoxicity against mouse J774.A1 cells by LDH release assay. Format: functional, cell-based. In general terms: Release of lactate dehydrogenase indicates damage to the cell membrane.

In general, pIC50 refers to the negative decadic logarithm of the IC50, by convention in mol/L. High values mean a small IC50, low ones a large IC50. Compound `CC1=CCC[C@@H]2[C@@](C)(C[C@H](O)C3=CC(=O)OC3O)[C@H](C)CC[C@@]12C` (some centres not stated) had a negative-log IC50 (pIC50) (Mus musculus, J774.A1) of 5.44.

`C[C@@H]1CC[C@@]2(C)C(=O)C[C@@H](O)CC[C@@H]2[C@@]1(C)C[C@H](O)C1=CC(=O)OC1O` (stereo in doubt; 1) gave a pIC50 (j774.a1) of 4.78.

`COC(=O)[C@H]1C[C@@H]2[C@@](C)(C[C@H](O)C3=CC(=O)OC3O)[C@H](C)CC[C@@]2(C)[C@@]1(C)O` (some centres not stated) gave a pIC50 (Mus musculus, J774.A1) of 5.82.

Compound `C[C@@H]1CC[C@@]2(C)C(=O)C[C@H](O)CC[C@@H]2[C@@]1(C)C[C@H](O)C1=CC(=O)OC1O` (mixture of isomers) gave a negative-log IC50 (pIC50) (Mus musculus, J774.A1) of 4.60.

Take `CC(=O)O[C@@H]1CC[C@@H]2[C@@](C)(C[C@H](O)C3=CC(=O)O[C@@H]3OC(C)=O)[C@H](C)CC[C@@]2(C)C(=O)C1`: the negative logarithm of the IC50 (pIC50) (Mus musculus, J774.A1) was 5.28. Compared with the last compound, the pIC50 is 0.68 log units higher.

In turn, `C[C@@H]1CC[C@]2(C)[C@H](C[C@H](C(=O)O)[C@]2(C)O)[C@@]1(C)C[C@H](O)C1=CC(=O)OC1O` (some centres not stated) showed a negative logarithm of the IC50 (pIC50) (Mus musculus, J774.A1) of 4.61. Against the preceding compound, the pIC50 is 0.67 log units lower.

`C[C@@H]1CC[C@]2(C)[C@H](CC(=O)[C@H]2C)[C@@]1(C)C[C@H](O)C1=CC(=O)OC1O` (some centres not stated): the negative-log IC50 (pIC50) (Mus musculus, J774.A1) is 5.85.
